Measured values from paper PMC1790702, “Non-Metabolic Membrane Tubulation and Permeability Induced by Bioactive Peptides” (PLoS ONE, 2007).
Like-named read-outs stand apart in the source and are kept apart here.

Key:
[1] = LUV aggregation by turbidimetry; conditions: for Peptide/Lipid ratio at which LUVs are aggregated efficiently: discussion, from figure 5; for P/L ratio at the plateau of LUV aggregation / P/L ratio at which LUV aggregation decreases: HEPES 10 mM pH 7.4, 20 min; for P/L ratio at the plateau of LUV aggregation / Peptide/lipid mass ratio (P/L) at which LUV aggregation starts / P/L ratio at which LUV aggregation decreases: 25°C; for Peptide/lipid mass ratio (P/L) at which LUV aggregation starts: turbidity, absorbance at 340 nm, 10 µg LUVs in 500 µl HEPES 10 mM pH 7.4, 20 min after peptide addition; for P/L ratio at which LUV aggregation decreases: peak-like profile
Method: (§1) Large unilamellar vesicles (LUV) were prepared by extrusion through a polycarbonate filter (pore diameter 100 nm) in an extrusion device from Avestin as described in [38]. To obtain calcein loaded LUVs, at 2 mg/ml lipid concentration (PC/PG/ [^14C] PC 9/1/0.01 mol ratio), a solution in chloroform was dried under a gentle stream of nitrogen and maintained under vacuum for at least 2 h to ascertain removal of residual solvent. Then, the dried lipid film was hydrated with 1 ml of 70 mM calcein solution in HEPES 10 mM pH 7.4, vigorously vortexed and extruded. Free calcein was separated by passing the suspension trough two gel filtration columns in tandem (Econo-Pac 10 DG, Bio-Rad). The final lipid concentration was quantified measuring the [^14C] PC radiactivity with a liquid scintillation counter LS 6000 SC (Beckman Coulter France).
LUVs aggregation was monitored by turbidimetry (absorbance at 340 nm) in a Cary spectrophotometer (Varian) as described. Peptides were added to a 500 µl quartz cuvette containing 10 µg of LUVs in a HEPES 10 mM pH 7.4 buffer and the absorbance was followed during 20 min after peptide exposure. At this time, membrane aggregation attained the plateau.

[2] = Small angle X-ray scattering of multilamellar vesicles, electron density profiles; type: physicochemical; conditions: for S^−1 (repeat distance), Ld1 phase / S^−1 (repeat distance), Ld2 phase: 5 mM HEPES pH 7.4, 20°C; for dwater (thickness of the hydration layer), Ld2 phase: peptide-free 2.19; for dwater (thickness of the hydration layer), Ld1 phase: peptide-free 2.23; for dbilayer (thickness of the membrane bilayer), Ld1 phase: peptide-free 3.90; for Change of bilayer thickness, Ld1 phase / Change of membrane thickness, Ld2 phase: versus peptide-free PC/PG (9/1) MLVs, P/L 1/20 (w/w)
Method: Briefly, samples for SAXS examination were prepared by dissolving dry lipids in chloroform/methanol (2/1, vol/vol) and mixing to obtain the indicated proportions. The solvent was subsequently evaporated under a stream of oxygen-free dry nitrogen at 45°C and traces of solvent removed by a storage under high vacuum for 2 days. In order to obtain the Multiple Lamellar Vesicles (MLVs) the dry lipids were hydrated with an equal weight of buffer (5 mM HEPES pH 7.4). The aqueous lipid dispersion was thoroughly stirred to obtain a homogeneous dispersion, sealed under argon and kept until examination at 4°C. For X-ray measurements, lipid samples (∼20 µl) were deposited between two thin mica windows and mounted on a programmable thermal stage (Linkam, UK). The temperature was monitored by a thermocouple (Quad Service, Poissy, France) inserted directly into the lipid dispersion. Samples were exposed for 30 seconds to the beam (1.5 Å wavelength). The SAXS quadrant detector response was corrected for the uneven channel response using a static radioactive […] and S was calibrated for d-spacing using hydrated rat tail collagen. Information on the setup, calibration, and facilities are available on the station web site (http://www.srs.dl.ac.uk/ncd/station82/description.html).
The electron density profiles of lipid bilayers were obtained by Fourier synthesis of x-ray diffraction patterns. Integrated densities were derived from five diffraction orders (estimated spatial resolution <0.12 nm) by measuring the area under each diffraction peak separated and integrated using the software Peakfit (Seasolve).

[3] = tested on: Annexin 2-GFP transfected MDCK cells; assay: Cell permeability, Ca2+ influx monitored by Annexin 2-GFP movement; type: cell-based; conditions: for Permeability towards ions at high peptide concentration: 100 µM peptide; for Permeability towards ions at high peptide concentration / Ca2+ influx and mobilization of annexin 2 from cytosol to the plasma membrane: Annexin 2-GFP MDCK cells; for Cell permeabilization: monitored by calcium permeability inducing annexin 2 movement in MDCK cells; for Ca2+ influx and mobilization of annexin 2 from cytosol to the plasma membrane: 10 µM peptide, in 10 minutes
Method: (§2) Annexin 2-GFP expression vector was a kind gift of Dr Stephen Moss (London UK). The annexin2-GFP transfected MDCK cloning will be published elsewhere. MDCK cells were cultured as described. Peptides were added at different concentrations and the annexin-GFP fluorescence was followed in a Zeiss inverted microscope. Films were acquired with Metamorph software. Cytotoxicity in CHO cells was evaluated using the CCK8 cell counting kit (Dojindo Laboratories). Briefly, cell suspension (100 µl, 1500 CHO cells per well) were seeded in DMEM plus 10 % FCS in 96-well microtiter plate at 37°C. 10 µl of peptides were added twice to the cells after 24 and 48 hours of cell culture to obtain concentrations of 1, 10, 20 and 50 µM and the toxicity was evaluated 48 after treatment.

[4] = Calcein leakage from LUVs; conditions: 25°C; for Calcein release: peptide/lipid ratio of 1/2, LUVs PC/PG/[14C]PC 9/1/0.01, 70 mM calcein, HEPES 10 mM pH 7.4, 5 min after peptide addition, fluorescence, relative to lysis with 1% Triton X-100
Method: as §1
The release of calcein after 5 minutes of peptide exposure to LUVs was measured by spectrofluorimetry (Varian eclipse) at excitation and emission wavelengths of 490 nm and 500–650 nm, respectively. […] Leakage was expressed as a percent relative of the total amount of dye released by LUVs lysis with 1% Triton X-100, according to equation: % release = 100×(F(t)−F0)/(FT−F0). F(t) is the fluorescence intensity at time t, F0 is the fluorescence intensity before peptide addition and FT the fluorescence intensity after LUVs lysis.

CHO cells = assay: Cytotoxicity, CCK8 cell counting kit; type: cell-based; conditions: for Lethality: after 48 hours of incubation of CHO cells with 10 µM peptides, CCK8, DMEM plus 10 % FCS, 37°C
Method: as §2

[5] = Membrane deformations on giant unilamellar vesicles, phase contrast video-microscopy
Method: Giant unilamellar vesicles (GUVs) were obtained by electroformation as described in [49]. Briefly, 1.5 µl of PC/PG (9/1, w/w) solution (0.4 mg/ml in chloroform/methanol 9/1) were spread on each platinum electrode. The lipid film was dried for half an hour under a gentle stream of nitrogen. The chamber was placed in an inverted microscope (Zeiss Axiovert 200M) and a thermocouple positioned to monitor the temperature (25°C). The electrodes were then completely hydrated with 2 ml of a low ionic strength buffer (HEPES 0.5 mM, pH 7.4 and conductivity 20 µS/cm). Immediately after buffer addition, a low frequency alternating field (5 Hz and 1 V) was applied on the electrodes for at least 2 hours. GUVs of diameter between 10 to 100 µm were observed. […] The observation temperature was 25°C.

[6] = Tryptophan fluorescence, membrane binding; conditions: excitation 280 nm, PC/PG (9/1) LUVs, 25°C
Method: Tryptophan fluorescence was measured following the recommendations described in [51]. Excitation wavelength was 280 nm, and emission spectrum was collected (290–600 nm). Excitation and emission slits were 6 nm and 5 nm respectively. A cross-oriented configuration of the polarizer (Expol = 90°, Empol = 0°) was used in order to reduce LUVs diffusion artefacts.

[7] = PC/PG (9/1) MLVs, peptide/lipid 1/20 (w/w)
[8] = PC/PG (9/1) MLVs, peptide/lipid 1/20 (w/w), 20°C
[9] = PC/PG (9/1) MLVs, peptide/lipid 1/20 (w/w), 20°C, peptide-free 3.62

With “RPKPQQFFGLM-NH2 [SP, Substance P, neuromodulator, primary amphipathic peptide, free N-terminal amino group, reference compound]” the LUV aggregation ([1]; turbidity at 340 nm, HEPES 10 mM pH 7.4, 25°C) was “does not aggregate LUVs”, the “dbilayer (thickness of the membrane bilayer), Ld2 phase” value (shortened to “dbilayer … Ld2 phase”) [2] was 3.54 nm and the “S^−1 (repeat distance), Ld1 phase” value [2, 7] was 5.96 nm. For the same substance, the “S^−1 (repeat distance), Ld2 phase” value [2, 7] was 5.75 nm, the “dwater (thickness of the hydration layer), Ld2 phase” value (“dwater … Ld2 phase” below) [2, 8] was 2.21 nm and the “dwater (thickness of the hydration layer), Ld1 phase” value (“dwater … Ld1 phase” below) [2, 8] was 2.34 nm. The “dbilayer (thickness of the membrane bilayer), Ld1 phase” value (“dbilayer … Ld1 phase” below) [2, 8] was 3.62 nm, the “Change of bilayer thickness, Ld1 phase” value ([2]; 20°C) was −2.8 Å and the “Permeability towards ions at high peptide concentration” value (from here on “Permeability towards ions”) [3] was “did not induce any increase in permeability towards ions”. For the same substance, the Cell permeabilization [3] was “no”, the Calcein release [4] was 8% and the Lethality (CHO cells) was 0%. The “GUV morphology at high peptide concentration” value ([5]; after 6 hours of incubation, 50 µl of peptide solution at 0.5 mM in 2 ml of buffer) was “did not perturb GUVs morphology”.
With “RQIKIWFQNRRMKWKK-NH2 [pAntp, Penetratin, cell-penetrating peptide, basic, non-amphipathic, 16 residues, reference compound]” the “Peptide/Lipid ratio at which LUVs are aggregated efficiently” value (shortened to “Peptide/Lipid ratio”) [1] was 1/20, the “P/L ratio at the plateau of LUV aggregation” value ([1]; turbidity at 340 nm) was 1/15 and the “Peptide/lipid mass ratio (P/L) at which LUV aggregation starts” value (shortened to “Peptide/lipid mass ratio (P/L)”) [1] was 1/25. For the same substance, the “S^−1 (repeat distance), Ld1 phase” value [2, 7] was 6.06 nm, the “S^−1 (repeat distance), Ld2 phase” value [2, 7] was 5.94 nm and the “dwater … Ld2 phase” value [2, 8] was 2.31 nm. The “dwater … Ld1 phase” value [2, 8] was 2.28 nm, the “dbilayer … Ld2 phase” value [2, 9] was 3.63 nm and the “dbilayer … Ld1 phase” value [2, 8] was 3.78 nm. The “Permeability towards ions” value [3] was “did not induce any increase in permeability towards ions”, the Cell permeabilization [3] was “no” and the “P/L ratio of peptide-membrane saturation (maximal shift in emission wavelength)” value [6] was 1/10. The Calcein release [4] was 11%, the Lethality (CHO cells) was 0% and the “Time for growing micro-tubes to invade the entire vesicle internal volume” value ([5]; GUVs PC/PG 9/1, 25°C) was “less than 20 minutes”.
In the case of “RRLRRLLRRLLRRLRR-Bi [RL16, secondary amphipathic polyarginine-leucine peptide with biotin (Bi) on N-terminus]”, the “P/L ratio at which LUV aggregation decreases” value ([1]; turbidity at 340 nm) is reported as 1/10, the “Peptide/lipid mass ratio (P/L)” value [1] is reported as “around 1/25” and the “S^−1 (repeat distance), Ld1 phase” value [2, 7] is reported as 6.20 nm. For the same substance, the “S^−1 (repeat distance), Ld2 phase” value [2, 7] was 6.01 nm, the “dwater … Ld2 phase” value [2, 8] was 2.26 nm and the “dwater … Ld1 phase” value [2, 8] was 2.27 nm. The “dbilayer … Ld2 phase” value [2, 9] was 3.75 nm, the “dbilayer … Ld1 phase” value [2, 8] was 3.93 nm and the “Change of membrane thickness, Ld2 phase” value ([2]; 20°C) was “+1.3 Å”. For the same substance, the “Ca2+ influx and mobilization of annexin 2 from cytosol to the plasma membrane” value [3] was “provoked the Ca^2+ influx”, the Cell permeabilization [3] was “yes” and the “P/L ratio at which a significant calcein release from LUVs is induced” value ([4]; 5 min after peptide addition) was 1/5. For the same substance, the Calcein release [4] was 38%, the Cell toxicity (CHO cells; CHO cells, 48 hours of peptide incubation) was “the only toxic peptide” and the Lethality (CHO cells) was 55%. For the same substance, the GUV integrity ([5]; GUVs PC/PG 9/1, 25°C) was “complete GUV destruction after few seconds”.
In the case of “RRRRRRRRR-NH2 [R9, Polyarginine, cell-penetrating peptide, nine arginines, free N-terminal amino group, reference compound]”, the “Peptide/Lipid ratio” value [1] is reported as 1/50, the “P/L ratio at the plateau of LUV aggregation” value ([1]; turbidity at 340 nm) is reported as 1/45 and the “Peptide/lipid mass ratio (P/L)” value [1] is reported as 1/80. For the same substance, the “Permeability towards ions” value [3] was “did not induce any increase in permeability towards ions”, the Cell permeabilization [3] was “no” and the Calcein release [4] was 8%. The Lethality (CHO cells) was 0% and the “Time for growing micro-tubes to invade the entire vesicle internal volume” value ([5]; GUVs PC/PG 9/1, 25°C) was “less than 20 minutes”.
In the case of “RRWRRWWRRWWRRWRR-Bi [RW16, secondary amphipathic polyarginine-tryptophane peptide with biotin (Bi) on N-terminus]”, the “P/L ratio at which LUV aggregation decreases” value ([1]; turbidity at 340 nm) is reported as 1/10, the “Peptide/lipid mass ratio (P/L)” value [1] is reported as “around 1/25” and the “S^−1 (repeat distance), Ld1 phase” value [2, 7] is reported as 6.08 nm. The “S^−1 (repeat distance), Ld2 phase” value [2, 7] was 5.89 nm, the “dwater … Ld2 phase” value [2, 8] was 2.18 nm and the “dwater … Ld1 phase” value [2, 8] was 2.25 nm. The “dbilayer … Ld2 phase” value [2, 9] was 3.71 nm, the “dbilayer … Ld1 phase” value [2, 8] was 3.83 nm and the “Change of membrane thickness, Ld2 phase” value ([2]; 20°C) was 0.9 Å. The “Ca2+ influx and mobilization of annexin 2 from cytosol to the plasma membrane” value [3] was “provoked the Ca^2+ influx”, the Cell permeabilization [3] was “yes” and the “P/L ratio of peptide-membrane saturation (maximal shift in emission wavelength)” value [6] was 1/10. The Calcein release [4] was 14% and the Lethality (CHO cells) was 0%.
In the case of “RRWWRRWRR-NH2 [RW9, short secondary amphipathic polyarginine-tryptophane peptide, free N-terminal amino group]”, the “Peptide/Lipid ratio” value [1] is reported as 1/30, the “P/L ratio at which LUV aggregation decreases” value ([1]; turbidity at 340 nm) is reported as 1/10 and the “Peptide/lipid mass ratio (P/L)” value [1] is reported as 1/35. For the same substance, the “S^−1 (repeat distance), Ld1 phase” value [2, 7] was 5.96 nm, the “S^−1 (repeat distance), Ld2 phase” value [2, 7] was 5.74 nm and the “dwater … Ld2 phase” value [2, 8] was 2.19 nm. For the same substance, the “dwater … Ld1 phase” value [2, 8] was 2.33 nm, the “dbilayer … Ld2 phase” value [2, 9] was 3.55 nm and the “dbilayer … Ld1 phase” value [2, 8] was 3.63 nm. For the same substance, the “Change of bilayer thickness, Ld1 phase” value ([2]; 20°C) was −2.7 Å, the “Permeability towards ions” value [3] was “did not induce any increase in permeability towards ions” and the Cell permeabilization [3] was “no”. For the same substance, the “P/L ratio of peptide-membrane saturation (maximal shift in emission wavelength)” value [6] was 1/15, the Calcein release [4] was 7% and the Lethality (CHO cells) was 0%.
